Reference: patent US5196453A, “Crystalline deoxyspergualin, process for its preparation and suppository containing the same” (priority 1989, dated 1993)
Where “and” joins values, the source holds several entries; their conditions need not be identical. Equal entries are not always repeated. Structures can show the parent of a compound that is named as a salt. Where two headings read alike, the source gives them in different places.

Assays:
[1] = Heat stability: undecomposed substance by HPLC after storage at 50° C. for 6 days; assay type: physicochemical
Procedure: To evaluate the heat stability of α-form crystals of deoxyspergualin hydrochloride in comparison with that of the powder, samples were stored at 50° C. for 6 days and were analyzed by high-pressure liquid chromatography (HPLC), and the amount of undecomposed substance was measured.
To evaluate the heat stability of β-form crystals of deoxyspergualin hydrochloride in comparison with that of the powder, samples were stored at 50° C. for 6 days, and analyzed by HPLC to measure the amount of undecomposed substance.
To evaluate the heat stability of the Powder A in comparison with those of α-form crystals and β-form crystals of the above-identified application, samples were stored at 50° C. for 6 days and then analyzed by HPLC to measure the amount of undecomposed substance.

[2] = Hygroscopicity: change in weight after storage at different RH (%) for 24 hrs; assay type: physicochemical; settings: for Deliquescence (in words): RH of 64%
Procedure: To evaluate the hygroscopicity of the powder and α-form crystals of deoxyspergualin hydrochloride, the change of the weight of each sample was measured after storage in different RH (%) for 24 hrs. To evaluate the hygroscopicity of the powder and β-form crystals of deoxyspergualin hydrochloride, the change in the weight of each sample was measured after storage in different RH (%) for 24 hrs. The hygroscopicity each of the Powder A and α-form crystals and β-form crystals of the above-identified application was evaluated by measuring the change in weight after storage in various RH(%) for 24 hrs.

Amount of undecomposed substance [1]	Increase in weight ([2]; RH 31%)	Increase in weight ([2]; RH 43%)	Increase in weight ([2]; RH 52%)	Increase in weight ([2]; RH 64%)	Amount of undecomposed substance ([1]; trihydrochloride, 8640 min)	Increase in weight ([2]; RH 31%, trihydrochloride)	Increase in weight ([2]; RH 43%, trihydrochloride)	Increase in weight ([2]; RH 52%, trihydrochloride)	Increase in weight ([2]; RH 64%, trihydrochloride)	Water absorption (in words) ([2]; RH of 52% or below)	Increase in weight ([2]; RH 14%)	Increase in weight ([2]; RH 76%, trihydrochloride)	Deliquescence (in words) ([2]; trihydrochloride)	Compound
59.7%	5.0%	6.3%	7.4%	13.2%	–	–	–	–	–	–	–	–	–	Cl.Cl.Cl.N=C(N)NCCCCCCC(=O)NC(O)C(=O)NCCCCNCCCN (centres unmarked) [Powder A, N-[4-(3-aminopropyl)aminobutyl]-2-(7-guanidinoheptanamido)-2-hydroxyethanamide trihydrochloride, reference compound]
–	–	–	–	–	100.1% and 100.0%	-0.6% and -0.8%	-0.4%	-0.1% and -0.2%	15.2% and 17.8%	did not absorb water	–	–	–	N=C(N)NCCCCCCC(=O)NC(O)C(=O)NCCCCNCCCN (stereo not drawn) [α-form crystals, N-[4-(3-aminopropyl)aminobutyl]-2-(7-guanidinoheptanamide)-2-hydroxyethanamide trihydrochloride]
–	–	–	–	–	89.8% and 83%	5.9%	9.1%	12.6%	17.9%	–	1.5%	28.3%	deliquesced	N=C(N)NCCCCCCC(=O)NC(O)C(=O)NCCCCNCCCN (centres unmarked) [Powder, N-[4-(3-aminopropyl)aminobutyl]-2-(7-guanidinoheptanamide)-2-hydroxyethanamide trihydrochloride, reference compound]
–	–	–	–	–	100.6% and 100.2%	1.7% and 1.2%	2.6% and 2.1%	3.8% and 3.0%	7.3% and 6.1%	–	–	14.0%	did not deliquesce	N=C(N)NCCCCCCC(=O)NC(O)C(=O)NCCCCNCCCN (stereo not drawn) [β-form crystals, N-[4-(3-aminopropyl)aminobutyl]-2-(7-guanidinoheptanamide)-2-hydroxyethanamide trihydrochloride]
